Our source for the IC50 values is US20230357179A1, “RAF KINASE INHIBITORS AND METHODS OF USE THEREOF” (Deciphera Pharmaceuticals, LLC, priority 2021, published 2023).

Assay [1] deals with A375 cells. Description: A375 cell proliferation assay (1), resazurin, 96-well. In kind it is cell-based. Conditions: Homo sapiens, A-375, inhibition of cell proliferation. Here is the method: A375 Cell Proliferation Assay (1)
A375 cells (catalog (#CRL-1619) are obtained from the American Type Culture Collect (ATTC, Manassas, VA). Briefly, cells were grown in DMEM High Glucose supplemented with 10% characterized fetal bovine serum (Invitrogen, Carlsbad, CA) and 1% Penicillin/Streptomycin/L-Glutamine at 37° C., 5% CO2, and 95% humidity. Cells are expanded until reaching 70-95% confluency at which point they are sub-cultured or harvested for assay use. A serial dilution of test compound is dispensed into a 96-well black clear bottom plate in triplicate. Two thousand five hundred cells are added per well in 200 μL complete growth medium in the 96-well plate. Plates are incubated for 67-72 hours at 37° C., 5% CO2, and 95% humidity. At the end of the incubation, 40 μL of a 440 μM solution of resazurin (Sigma, St. Louis, MO) in PBS is added to each well of the plate and plates are incubated for an additional 5-6 hours at 37° C., 5% CO2, and 95% humidity. Plates are read on a Synergy2 or equivalent reader (Biotek, Winooski VT) using an excitation of 540 nm and an emission of 600 nm. Data is analyzed using Prism software (GraphPad, San Diego, CA) to calculate IC50 values.
Background: The colour change of resazurin is a common sign of viable cells or microbes.

Assay [2] concerns the target T1, B-Raf kinase (Homo sapiens, UniProt P15056).
T1 construct: GST (N); purchased Sigma
In words: Biochemical assay for B-Raf.1 (coupled pyruvate kinase/lactate dehydrogenase). Conditions: read-out: BRAF.1 IC50. The procedure: Biochemical Assay for B-Raf.1
(§1) Activity of B-Raf kinase (SEQ. ID NO: 2) was determined spectroscopically using a coupled pyruvate kinase/lactate dehydrogenase assay that continuously monitors the ATP hydrolysis-dependent oxidation of NADH (e.g., Schindler et al., Science, 2000, 289, 1938-1942). Assays were conducted in 384-well plates (100 μL final volume) using 0.13 nM B-Raf (Sigma), 1.5 units pyruvate kinase, 2.1 units lactate dehydrogenase, 1 mM phosphoenol pyruvate, 0.28 mM NADH, 30.1 nM MEK (SignalChem), and 1 mM ATP in assay buffer (100 mM Tris, pH 7.5, 15 mM MgCl2, 0.5 mM DTT, 0.1% octyl-glucoside, 0.002% (w/v) BSA, and 0.002% Triton X-100). Inhibition of B-Raf was measured by adding serial diluted test compound (final assay concentration of 1% DMSO). A decrease in absorption at 340 nm was monitored continuously for 6 h at 30° C. on a multi-mode microplate reader (BioTek). The reaction rate was calculated using the 4 to 5 h time frame. The reaction rate at each concentration of compound was converted to percent inhibition using controls (i.e., reaction with no test compound and reaction with a known inhibitor) and IC50 values were calculated by fitting a four-parameter sigmoidal curve to the data using Prism (GraphPad software).

Assay [3] addresses T2, A-Raf kinase (Homo sapiens, UniProt P10398, Y301D/Y302D).
T2 construct: purchased Sigma
Description: Biochemical assay for A-Raf.1 (coupled pyruvate kinase/lactate dehydrogenase). Conditions: read-out: ARAF.1 IC50. Here is the method:
Biochemical assay for A-Raf.1
as §1, with “A-Raf” for “B-Raf”, “NO. 1)” for “NO: 2)”, “5.55” for “0.13”

The target of assay [4] is T3, C-Raf kinase (Homo sapiens, UniProt P04049, Y340D/Y341D).
T3 construct: Y340D,; GST (N); purchased Sigma
T3 sequence (P04049 307-648 Y340D/Y341D): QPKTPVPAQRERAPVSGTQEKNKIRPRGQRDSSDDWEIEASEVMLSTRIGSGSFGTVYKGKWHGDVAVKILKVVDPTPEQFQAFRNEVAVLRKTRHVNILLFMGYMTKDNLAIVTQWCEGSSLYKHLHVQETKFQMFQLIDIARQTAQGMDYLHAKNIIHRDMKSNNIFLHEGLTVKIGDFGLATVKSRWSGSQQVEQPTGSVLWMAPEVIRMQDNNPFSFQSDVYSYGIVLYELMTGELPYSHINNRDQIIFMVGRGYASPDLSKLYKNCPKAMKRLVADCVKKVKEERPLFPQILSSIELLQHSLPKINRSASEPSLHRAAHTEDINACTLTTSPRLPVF
Description: Biochemical assay for C-Raf.1 (coupled pyruvate kinase/lactate dehydrogenase). Conditions: read-out: CRAF.1 IC50. The procedure: Biochemical Assay for C-Raf.1
as §1, with “of C-Raf” for “of B-Raf”, “NO: 3)” for “NO: 2)”, “using 0.43” for “using 0.13”, “nM C-Raf” for “nM B-Raf”

Assay [5] has as its target T4, B-Raf (V600E) kinase (Homo sapiens, UniProt P15056, V600E).
T4 construct: B-Raf (V600E) residues 416-766 with a; GST (N); purchased SignalChem
Description: Biochemical assay for B-Raf (V600E).1 (coupled pyruvate kinase/lactate dehydrogenase). Conditions: read-out: BRAF V600E.1 IC50. The procedure: Biochemical Assay for B-Raf (V600E).1
Activity of B-Raf (V600E) (SEQ. ID NO: 4) kinase was determined spectroscopically using a coupled pyruvate kinase/lactate dehydrogenase assay that continuously monitors the ATP hydrolysis-dependent oxidation of NADH (e.g., Schindler et al., Science, 2000, 289, 1938-1942). Assays were conducted in 384-well plates (100 μL final volume) using 0.03 nM B-Raf (SignalChem), 1.5 units pyruvate kinase, 2.1 units lactate dehydrogenase, 1 mM phosphoenol pyruvate, 0.28 mM NADH, 30.1 nM MEK (SignalChem), and 1 mM ATP in assay buffer (100 mM Tris, pH 7.5, 15 mM MgCl2, 0.5 mM DTT, 0.1% octyl-glucoside, 0.002% (w/v) BSA, and 0.002% Triton X-100). Inhibition of B-Raf (V600E) was measured by adding serial diluted test compound (final assay concentration of 1% DMSO). A decrease in absorption at 340 nm was monitored continuously for 6 h at 30° C. on a multi-mode microplate reader (BioTek). The reaction rate was calculated using the 3 to 4 h time frame. The reaction rate at each concentration of compound was converted to percent inhibition using controls (i.e., reaction with no test compound and reaction with a known inhibitor) and IC50 values were calculated by fitting a four-parameter sigmoidal curve to the data using Prism (GraphPad software).

Each structure is given as a SMILES string.

T2 sequence (P10398 with tags, fused parts or gaps Y301D/Y302D): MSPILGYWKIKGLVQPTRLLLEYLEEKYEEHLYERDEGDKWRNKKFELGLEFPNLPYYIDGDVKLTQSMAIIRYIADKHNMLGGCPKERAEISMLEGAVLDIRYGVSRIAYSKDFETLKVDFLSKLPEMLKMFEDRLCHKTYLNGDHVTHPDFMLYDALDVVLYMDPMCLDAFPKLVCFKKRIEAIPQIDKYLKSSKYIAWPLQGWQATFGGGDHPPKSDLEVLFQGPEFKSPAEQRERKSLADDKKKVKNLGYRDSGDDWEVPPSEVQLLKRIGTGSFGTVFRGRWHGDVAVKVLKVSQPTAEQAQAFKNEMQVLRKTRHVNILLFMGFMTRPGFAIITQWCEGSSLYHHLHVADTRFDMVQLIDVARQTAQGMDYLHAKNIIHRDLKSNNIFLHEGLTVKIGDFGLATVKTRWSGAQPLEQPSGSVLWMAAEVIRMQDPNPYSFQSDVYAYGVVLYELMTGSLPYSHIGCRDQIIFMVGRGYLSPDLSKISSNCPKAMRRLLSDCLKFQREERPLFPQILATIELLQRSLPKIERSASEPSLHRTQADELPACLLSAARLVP
T1 sequence (P15056 416-766): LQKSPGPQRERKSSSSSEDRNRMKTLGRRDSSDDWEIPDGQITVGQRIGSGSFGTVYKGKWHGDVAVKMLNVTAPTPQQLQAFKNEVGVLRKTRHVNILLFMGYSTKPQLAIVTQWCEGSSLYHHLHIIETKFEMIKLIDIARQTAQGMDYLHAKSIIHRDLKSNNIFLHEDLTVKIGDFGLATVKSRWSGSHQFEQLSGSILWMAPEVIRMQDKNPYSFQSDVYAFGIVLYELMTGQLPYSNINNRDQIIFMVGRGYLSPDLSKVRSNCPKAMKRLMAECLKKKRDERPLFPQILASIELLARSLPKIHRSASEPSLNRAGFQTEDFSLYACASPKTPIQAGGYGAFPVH
T4 sequence (P15056 416-766 V600E): as the sequence (P15056 416-766) above, with V185E counted along it

For `Cc1ccc(NC(=O)NCCC(C)(C)C)cc1-c1cc(N2CCOCC2)nc(N2CC(O)C2)n1` [Example 11], the IC50 is 1000 to 10000 nM in assay [1]; 500 to 1000 nM in assay [2]; > 1000 nM in assay [3]; 100 to 500 nM in assay [4]; ≤ 100 nM in assay [5].
With `Cc1cc(F)c(NC(=O)NCCC(C)(C)C)cc1-c1cc(OCCO)nc(C2CCOCC2)c1` [Example 9], the half-maximal inhibitory concentration (IC50) in assay [1] is 100 to 500 nM; in assay [2], ≤ 100 nM; in assay [3] it was > 1000 nM; in assay [4], ≤ 100 nM; in assay [5], ≤ 100 nM.
As to `COC(C)(C)CCNC(=O)Nc1cc(-c2cc(OCCO)nc(-c3ccncc3)c2)c(C)cc1F` [Example 40], the half-maximal inhibitory concentration (IC50) in assay [1] is 1000 to 10000 nM; in assay [2] it was 100 to 500 nM; in assay [3], > 1000 nM; in assay [4], 100 to 500 nM; in assay [5], ≤ 100 nM.
As for `Cc1ccc(NC(=O)NCCC(C)(C)C#N)cc1-c1cc(-c2cnn(C)c2)nc(N2CCOCC2)c1` [Example 21], the IC50 is 1000 to 10000 nM in assay [1]; 500 to 1000 nM in assay [2]; > 1000 nM in assay [3]; 100 to 500 nM in assay [4]; ≤ 100 nM in assay [5].
The corresponding values for `Cc1cc(F)c(NC(=O)NCCC(C)(C)C#N)cc1-c1cc(OCCO)nc(-c2ccncc2)c1` [Example 41] are 1000 to 10000 nM, 100 to 500 nM, > 1000 nM, 100 to 500 nM and ≤ 100 nM.
`COC(=O)Nc1cc(-c2cc(-c3cc(NC(=O)NCCC4CN(C)C4)cnc3C)cc(OCCO)n2)ccn1` [Example 183]: the half-maximal inhibitory concentration (IC50) in assay [1] is 1000 to 10000 nM; in assay [2] it was > 1000 nM; in assay [3], > 1000 nM; in assay [4], > 1000 nM; in assay [5], > 1000 nM.
Take `Cc1cc(F)c(NC(=O)NC[C@H]2CCO2)cc1-c1cc(OCCO)nc(-c2ccnc3[nH]ncc23)c1` [Example 93]: the IC50 is 1000 to 10000 nM in assay [1]; > 1000 nM in assay [2]; > 1000 nM in assay [3]; > 1000 nM in assay [4]; > 1000 nM in assay [5].
Consider `CC(=O)Nc1cc(-c2cc(-c3cc(NC(=O)NCCC(C)(C)C(F)(F)F)c(F)cc3C)cc(C3CC3)n2)ccn1` [Example 56], for which the IC50 in assay [1] is 500 to 1000 nM; in assay [2], ≤ 100 nM; in assay [3], > 1000 nM; in assay [4], ≤ 100 nM; in assay [5], ≤ 100 nM.
Take `Cc1cc(F)c(NC(=O)NCCC2(C)CC2)cc1-c1cc(OC2CCN(C)CC2)nc(-c2ccncc2)c1` [Example 36]: the half-inhibitory concentration (IC50) is 1000 to 10000 nM in assay [1]; 100 to 500 nM in assay [2]; > 1000 nM in assay [3]; 100 to 500 nM in assay [4]; ≤ 100 nM in assay [5].
As for `Cc1cc(F)c(NC(=O)NCCC2(C)CC2)cc1-c1nc(NCCO)cc(N2CCOCC2)n1` [Example 31], the IC50 is 1000 to 10000 nM in assay [1]; 100 to 500 nM in assay [2]; > 1000 nM in assay [3]; 100 to 500 nM in assay [4]; ≤ 100 nM in assay [5].
On to `Cc1cc(F)c(NC(=O)NCCC2(C)CC2)cc1-c1cc(OCCO)nc(-c2ccncc2)c1` [Example 32], for which the IC50 was 1000 to 10000 nM in assay [1]; ≤ 100 nM in assay [2]; > 1000 nM in assay [3]; ≤ 100 nM in assay [4]; ≤ 100 nM in assay [5].
`Cc1ccc(NC(=O)N[C@@H]2CCc3ccccc32)cc1-c1cc(OCCO)nc(N2CCOCC2)c1` [Example 15]: the IC50 in assay [1] is 1000 to 10000 nM; in assay [2], 100 to 500 nM; in assay [3] it was > 1000 nM; in assay [4], ≤ 100 nM; in assay [5], ≤ 100 nM.
For `Cc1cc(F)c(NC(=O)NCCC2(C(F)(F)F)CC2)cc1-c1cc(N2CCOCC2)nc(N2CC(N(C)C)C2)n1` [Example 30], the IC50 was 1000 to 10000 nM in assay [1]; > 1000 nM in assay [2]; > 1000 nM in assay [3]; 500 to 1000 nM in assay [4]; ≤ 100 nM in assay [5].
Regarding `Cc1ccc(NC(=O)N[C@H]2CCc3ccccc32)cc1-c1cc(OCCO)nc(N2CCOCC2)c1` [Example 20], the IC50 in assay [1] is 500 to 1000 nM; in assay [2], 500 to 1000 nM; in assay [3] it was > 1000 nM; in assay [4], 100 to 500 nM; in assay [5], ≤ 100 nM.
In the case of `Cc1cc(F)c(NC(=O)NC2CCC(F)(F)CC2)cc1-c1cc(-c2cnn(C)c2)nc(N2CCOCC2)c1` [Example 39], the IC50 was 1000 to 10000 nM in assay [1]; ≤ 100 nM in assay [2]; > 1000 nM in assay [3]; ≤ 100 nM in assay [4]; ≤ 100 nM in assay [5].
In the case of `CCNC(=O)Nc1cc(-c2cc(OCCO)nc(-c3ccnc(NC(=O)C4CC4)c3)c2)c(C)cc1F` [Example 98], the IC50 in assay [1] is 1000 to 10000 nM; in assay [2], 100 to 500 nM; in assay [3], > 1000 nM; in assay [4], ≤ 100 nM; in assay [5], ≤ 100 nM.

By IC50 is commonly meant the concentration at which inhibition is half-maximal.
